Source: paper PMC12166061, “Crystallographic fragment screening reveals ligand hotspots in TRIM21 PRY-SPRY domain” (Communications Chemistry, 2025)
Read-outs that look alike come from different tables or passages of the source. Each block holds one molecule with its values, some of them ahead of it.

Columns and labels:
[1] = target: T1, full-length hTRIM21 with C-terminal NanoLuc fusion (Homo sapiens, UniProt P19474); experiment: cell-based; details: tracer AL244 (2)
Method: (§4) Full-length hTRIM21 with N- or C-terminal NanoLuc fusion was transfected into HEK293T cells (ATCC) using Fugene 4K (Promega, Cat. No. E5911) transfection reagent according to the manufacturer’s instructions. Following protein expression for 24 h, cells were split again in OptiMEM medium (phenol red free, Life Technologies) to a final amount of 2 × 10^5 cells per mL and 10 µL per well were distributed in a 384 well plate. Next, tracer AL244 (2) was added in concentrations from 3 µM to 6 nM. […] Then, cells were permeabilized through the addition of 25 nL Digitonin (0.05 µg µL^−1). Following another 5-min incubation, filtered luminescence was measured again. The data acquired in the tracer titration was converted into mBRET units (Fluorescence intensity at 610 nm / Luminescence intensity at 450 nm) × 1000 and graphed using Graph-Pad Prism v.9 software.
(§5) A 384-well plate with cells expressing hTRIM21-NLuc was prepared as described above. […] Then, cells were permeabilized with Digitonin and, following 5 min of incubation, filtered luminescence was measured. The data acquired in the competition experiments were converted to mBRET units, then normalized to the positive and negative control and graphed using Graph-Pad Prism v.9 software using a normalized three-parameter curve fit using the following equation: y = 100/[1 + 10(x − logIC50)].

[2] = target: T1, full-length hTRIM21 with C-terminal NanoLuc fusion; details: for tracer displacement: compound at 500 µM, NanoBRET; for cell permeability: inferred from intact versus lysed NanoBRET
Method: as §4, §5

TRIM21 [3] = details: human TRIM21; read-out: affinity; cited from earlier work
TRIM21 PRY-SPRY domain = experiment: DSF ΔTm of control suramin, species not stated; type: binding; details: at the screening concentration
Method: (§1) Briefly, recombinant murine and human TRIM21 PRY-SPRY domain at a concentration of 8 μM were mixed with 2 mM compound in their respective SEC buffer. SYPRO Orange (5000×, Invitrogen) was added as a fluorescence probe (1 µl per mL). Subsequently, temperature-dependent protein unfolding profiles were measured using the QuantStudio™ 5 realtime PCR machine (Thermo Fisher). Excitation and emission filters were set to 465 nm and 590 nm, respectively. The temperature was raised with a step rate of 3 °C per minute. Data points were analysed with the internal software (Thermal Shift SoftwareTM Version 1.4, Thermo Fisher) using the Boltzmann equation to determine the inflection point of the transition curve.

TRIM21 [4] = details: mouse TRIM21; read-out: affinity; cited from earlier work
His-mTRIM21 PRYSPRY = target: T2, His-mTRIM21 PRYSPRY (Mus musculus, UniProt Q62191); experiment: SPR fragment screening and dose response, mouse TRIM21 PRY-SPRY; type: binding
T2 construct: mouse TRIM21 PRY-SPRY domain (residues V291-M470, UniProt-ID: Q62191); made in house; host or cells: E. coli BL21(DE3)
T2 sequence (Q62191 291-470): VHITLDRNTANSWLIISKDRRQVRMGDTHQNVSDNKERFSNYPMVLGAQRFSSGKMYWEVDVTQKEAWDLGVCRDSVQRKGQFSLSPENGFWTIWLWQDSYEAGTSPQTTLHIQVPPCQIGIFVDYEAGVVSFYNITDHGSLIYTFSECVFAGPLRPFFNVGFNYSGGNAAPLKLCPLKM
Method: (§2) His-mTRIM21 PRYSPRY and His-SUMO-hTRIM21 PRY-SPRY were immobilized onto flow channels (FC) FC2, FC3, and FC4 of a Series S sensor chip NTA (Cytiva). […] Proteins (10–20 µg mL^−1 in HBS-P+) were injected at 10 µL min^−1 to achieve response levels of 3500–4300 RU for mTRIM21 and 3600–4000 RU for hTRIM21. Flow channel 1 (FC1) was used as a reference surface. Surface deactivation and nickel stripping were achieved using 1 M ethanolamine and 350 mM ethylenediaminetetraacetic acid (EDTA), respectively.
(§3) Fragment screening was conducted by injecting 500 µM fragments diluted in running buffer (HBS-P+ with 1 mM TCEP and 2% (v/v) dimethyl sulfoxide (DMSO)) over all flow-channels for 30 s at 30 µL/min^−1. To account for surface drift, 50 µM of a control compound (Suramin) was injected every 15 fragment injections, and blank injections were performed every 5 fragments. Responses were analyzed by blank subtraction, reference subtraction (FC1), solvent correction, molecular weight adjustment, and drift correction using Biacore T200 Evaluation Software v3.2.1. The binding threshold for fragment hits was set based on the Suramin-binding response level.
The data was solvent-corrected, reference-subtracted (FC1), and blank-subtracted using the T200 Evaluation Software v3.2.1. Sensorgrams were subsequently replotted using Graphpad v.9 software.

[5] = target: T3, murine TRIM21 PRY-SPRY domain (Mus musculus, UniProt Q62191); experiment: Differential scanning fluorimetry (DSF, ΔTm), mouse TRIM21 PRY-SPRY domain; type: binding
T3 construct: mouse TRIM21 PRY-SPRY domain (residues V291-M470, UniProt-ID: Q62191); made in house; host or cells: E. coli BL21(DE3)
T3 sequence (Q62191 291-470): T2 sequence (Q62191 291-470)
Method: as §1

[6] = target: T4, human TRIM21 PRY-SPRY domain (Homo sapiens, UniProt P19474); experiment: Differential scanning fluorimetry (DSF, ΔTm), human TRIM21 PRY-SPRY domain; type: binding
T4 construct: Human TRIM21 PRY-SPRY domain (residues V287-I465, UniProt-ID: P19474); His6 (N, cleaved yes); SUMO (N, cleaved yes); made in house; host or cells: E. coli BL21(DE3)
Method: as §1

[7] = target: T5, His-SUMO-hTRIM21 PRY-SPRY (Homo sapiens, UniProt P19474); experiment: SPR fragment screening, human TRIM21 PRY-SPRY; type: binding
T5 construct: Human TRIM21 PRY-SPRY domain (residues V287-I465, UniProt-ID: P19474); made in house; host or cells: E. coli BL21(DE3)
Method: as §2, §3

[8] = single dose 500 µM fragment, relative response, suramin reference threshold 100 relative RU

T4 sequence (P19474 287-465): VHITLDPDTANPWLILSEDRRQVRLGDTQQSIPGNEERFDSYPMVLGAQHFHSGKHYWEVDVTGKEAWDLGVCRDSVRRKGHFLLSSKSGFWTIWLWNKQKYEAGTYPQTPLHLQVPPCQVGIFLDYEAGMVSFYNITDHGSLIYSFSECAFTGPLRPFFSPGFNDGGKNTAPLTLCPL
T5 sequence (P19474 287-465): as above
T1 sequence (P19474 whole entry, the tested form may be a part): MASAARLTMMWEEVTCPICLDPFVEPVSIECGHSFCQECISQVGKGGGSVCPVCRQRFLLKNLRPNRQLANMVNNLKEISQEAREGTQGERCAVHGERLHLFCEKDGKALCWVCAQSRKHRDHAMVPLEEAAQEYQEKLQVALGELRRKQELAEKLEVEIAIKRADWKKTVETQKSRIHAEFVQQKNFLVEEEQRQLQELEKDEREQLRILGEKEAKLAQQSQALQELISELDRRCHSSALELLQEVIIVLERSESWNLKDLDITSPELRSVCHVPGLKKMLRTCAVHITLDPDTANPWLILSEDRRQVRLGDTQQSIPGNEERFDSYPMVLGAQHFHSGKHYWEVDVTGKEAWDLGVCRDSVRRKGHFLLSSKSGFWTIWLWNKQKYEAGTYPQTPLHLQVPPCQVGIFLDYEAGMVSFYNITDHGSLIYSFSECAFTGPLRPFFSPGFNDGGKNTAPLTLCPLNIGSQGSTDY

Compound: O=C(Nc1ccc(S(=O)(=O)Nc2ccccn2)cc1)c1ccccc1 [AL257 (3)]
EC50 ([1]; NanoBRET EC50 (intact), intact HEK293T cells): 143 µM
EC50 ([1]; NanoBRET EC50 (lysed), lysed cells (digitonin)): 246 µM
tracer displacement [2]: displaced the tracer almost completely
cell permeability [2]: effective cell penetration

Compound: Cc1ccc(C(=O)Nc2ccc(S(=O)(=O)O)c3cc(S(=O)(=O)O)cc(S(=O)(=O)O)c23)cc1NC(=O)c1cccc(NC(=O)Nc2cccc(C(=O)Nc3cc(C(=O)Nc4ccc(S(=O)(=O)O)c5cc(S(=O)(=O)O)cc(S(=O)(=O)O)c45)ccc3C)c2)c1 [suramin]
Kd (TRIM21 [3]): ~10 µM
ΔTm shift (TRIM21 PRY-SPRY domain): 2.3 °C
Kd (TRIM21 [4]): ~10 µM
SPR response of reference (His-mTRIM21 PRYSPRY; suramin injected at 50 µM as reference, species not stated): 100 relative RU

Compound: CSc1cc(F)ccc1-c1ccc(C(=O)NCC2CCCCC2)c(S(C)(=O)=O)c1 [AL236 (1)]
EC50 ([1]; NanoBRET EC50 (intact), intact (live) HEK293T cells): 0.197 µM
EC50 ([1]; NanoBRET EC50 (lysed), permeabilized (lysed mode, digitonin) cells): 0.297 µM
cell permeability [2]: high cell permeability

Compound: CN(CCCCNS(=O)(=O)c1ccc(N)cc1)C(=O)c1cccs1 [AL266 (4)]
tracer displacement [2]: no activity

Compound: CS(=O)(=O)NCC1CCNCC1 [Fragment Z1741966151]
Tm-shift mTRIM21 [5]: 0.2 °C
SPR hTRIM21 (Response) [7]: 18.48
Tm-Shift hTRIM21 [6]: 0.1 °C
SPR mTRIM21 (Response) (His-mTRIM21 PRYSPRY): 29.2

Next, values leading:

Tm-shift mTRIM21 ([5]; 2 mM compound, 8 μM protein): 0.4 °C
tracer displacement [2]: ~ 40%
Tm-Shift hTRIM21 ([6]; 2 mM compound, 8 μM protein): 0.6 °C
Compound: CCNC1CCN(c2ccncc2)CC1 [Fragment Z2065616520]

Tm-shift mTRIM21 ([5]; 2 mM compound, 8 μM protein): -0.1 °C
SPR hTRIM21 (Response) [7, 8]: 46.45
Tm-Shift hTRIM21 ([6]; 2 mM compound, 8 μM protein): -0.1 °C
SPR mTRIM21 (Response) (His-mTRIM21 PRYSPRY; [8]): 50.3
Compound: CC(=O)NCc1ccnc(N(C)C)c1 [Fragment Z374427992]

Tm-shift mTRIM21 ([5]; 2 mM compound, 8 μM protein): -0.4 °C
SPR hTRIM21 (Response) [7, 8]: 28.35
Tm-Shift hTRIM21 ([6]; 2 mM compound, 8 μM protein): -0.1 °C
SPR mTRIM21 (Response) (His-mTRIM21 PRYSPRY; [8]): 27.71
Compound: CS(=O)(=O)NC1CCOC2(CCCC2)C1 (stereo not drawn) [Fragment Z1446981563]
